system: IL-1β release from THP-1 cells; assay: IL-1β Release Assay (Alternate Method), THP-1 cells; format: cell-based, human; conditions: at 0.3 μM; THP-1 cells
Procedure, shortened: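 THP-1 cells differentiated 16 h with 100 ng/mL LPS plus 100 ng/mL IFN-γ, reprimed 2 h with 100 ng/mL LPS, pretreated 30 min with compound, then challenged 45 min with 250 uM BzATP (final). Supernatant IL-1β quantified by ELISA; percent inhibition from background-adjusted levels versus untreated cells.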

| Compound | IL-1β % inhibition |
| --- | --- |
| O=C(CC12CC3CC(CC(C3)C1)C2)Nc1ncnc2c1CCN(C(=O)c1ccccc1Cl)C2 [Compound 294] | +++ (compound exhibited 50-75% inhibition at 0.3 μM) |
| CC(=O)N1CCC(C(=O)N2CCc3c(ncnc3NC(=O)CC34CC5CC(CC(C5)C3)C4)C2)CC1 [Compound 295] | + (compound exhibited 0-25% inhibition at 0.3 μM) |
| O=C(CC12CC3CC(CC(C3)C1)C2)Nc1ncnc2c1CCN(C(=O)c1ccno1)C2 [Compound 296] | +++ (compound exhibited 50-75% inhibition at 0.3 μM) |
| Cc1noc(C)c1C(=O)N1CCc2c(ncnc2NC(=O)CC23CC4CC(CC(C4)C2)C3)C1 [Compound 297] | + (compound exhibited 0-25% inhibition at 0.3 μM) |
| O=C(CC12CC3CC(CC(C3)C1)C2)Nc1ncnc2c1CCN(C(=O)c1ccnc(Cl)c1)C2 [Compound 298] | ++++ (compound exhibited 75% or greater inhibition at 0.3 μM) |
| Cc1oncc1C(=O)N1CCc2c(ncnc2NC(=O)CC23CC4CC(CC(C4)C2)C3)C1 [Compound 299] | + (compound exhibited 0-25% inhibition at 0.3 μM) |
| Cc1cc(C(=O)N2CCc3c(ncnc3NC(=O)CC34CC5CC(CC(C5)C3)C4)C2)n(C(C)(C)C)n1 [Compound 300] | + (compound exhibited 0-25% inhibition at 0.3 μM) |
| CC(C)(C)c1ccc(C(=O)N2CCc3c(ncnc3NC(=O)CC34CC5CC(CC(C5)C3)C4)C2)cc1 [Compound 301] | ++++ (compound exhibited 75% or greater inhibition at 0.3 μM) |
| O=C(CC12CC3CC(CC(C3)C1)C2)Nc1ncnc2c1CCN(C(=O)Cc1ccccc1Br)C2 [Compound 302] | +++ (compound exhibited 50-75% inhibition at 0.3 μM) |
| O=C(CC12CC3CC(CC(C3)C1)C2)Nc1ncnc2c1CCN(C(=O)c1ccc3ccccc3n1)C2 [Compound 303] | +++ (compound exhibited 50-75% inhibition at 0.3 μM) |
| O=C(CC12CC3CC(CC(C3)C1)C2)Nc1ncnc2c1CCN(C(=O)c1ccncc1)C2 [Compound 304] | + (compound exhibited 0-25% inhibition at 0.3 μM) |
| O=C(CC12CC3CC(CC(C3)C1)C2)Nc1ncnc2c1CCN(C(=O)C1CCCN1C(=O)C(F)(F)F)C2 (stereo not shown) [Compound 306] | + (compound exhibited 0-25% inhibition at 0.3 μM) |
| COCCC(=O)N1CCc2c(ncnc2NC(=O)CC23CC4CC(CC(C4)C2)C3)C1 [Compound 307] | ++ (compound exhibited 25-50% inhibition at 0.3 μM) |
| O=C(CC12CC3CC(CC(C3)C1)C2)Nc1ncnc2c1CCN(C(=O)c1ccc3c(c1)CCO3)C2 [Compound 309] | ++++ (compound exhibited 75% or greater inhibition at 0.3 μM) |
| COc1ccc(C(=O)N2CCc3c(ncnc3NC(=O)CC34CC5CC(CC(C5)C3)C4)C2)cc1F [Compound 310] | +++ (compound exhibited 50-75% inhibition at 0.3 μM) |
| COc1ccc(C(=O)N2CCc3c(ncnc3NC(=O)CC34CC5CC(CC(C5)C3)C4)C2)cc1OC [Compound 312] | + (compound exhibited 0-25% inhibition at 0.3 μM) |
| O=C(CC12CC3CC(CC(C3)C1)C2)Nc1ncnc2c1CCN(C(=O)C1COc3ccccc3C1)C2 (stereo not shown) [Compound 313] | ++++ (compound exhibited 75% or greater inhibition at 0.3 μM) |
| O=C(NCC12CC3CC(CC(C3)C1)C2)c1ncnc2c1CCN(Cc1cccc(F)c1)C2 [Compound 316] | + (compound exhibited 0-25% inhibition at 0.3 μM) |
| CC(c1ccc2c(c1)OCCO2)N1CCc2c(ncnc2NC(=O)CC23CC4CC(CC(C4)C2)C3)C1 (stereo not shown) [Compound 317] | + (compound exhibited 0-25% inhibition at 0.3 μM) |
| O=C(CC12CC3CC(CC(C3)C1)C2)Nc1ncnc2c1CCN(Cc1ccc3c(c1)Cc1ccccc1-3)C2 [Compound 318] | + (compound exhibited 0-25% inhibition at 0.3 μM) |
| O=C(CC12CC3CC(CC(C3)C1)C2)Nc1ncnc2c1CCN(Cc1ccc(Cl)cc1Cl)C2 [Compound 319] | + (compound exhibited 0-25% inhibition at 0.3 μM) |
| Cc1ccc(CN2CCc3c(ncnc3NC(=O)CC34CC5CC(CC(C5)C3)C4)C2)c(C)c1 [Compound 320] | + (compound exhibited 0-25% inhibition at 0.3 μM) |

Reference: US7297700B2, “Bicycloheteroaryl compounds as P2X7 modulators and uses thereof” (Renovis, Inc., priority 2005, dated 2007)
